Source: patent US9447377B2, “Endodermal cells from pluripotent cells” (priority 2011, dated 2016)

Tests used:
Assay type in all cases: cell-based, murine
wt ES cells [1] = experiment: Differentiation of wt ES cells towards Sox17+ cells under PPP chemical inhibition, immunofluorescence analysis; conditions: immunofluorescence with anti-Sox17 antibody; serum-free KSR neural differentiation medium
Procedure: (§1) Wt murine or with a deletion of the gene coding for G6PD (G6pdΔ) embryonic stem (ES) cells have been differentiated following the method described in Fico et al. (Fico A et al., Stem Cells Dev 2008). Briefly, 48 h before the induction of the differentiation, the ES cells have been plated onto pre-gelatinized plates. On day 0, the cells have been dissociated, thus obtaining a single cell suspension, which have subsequently been plated onto gelatinized plates at a density of 1.500 cells/cm2. During the differentiation process, the culture medium has been changed every other day for the first 6 days, then daily. The culture medium used consists in the medium free from integrated Knockout Serum Replacement (KSR) serum, and contains knockout Dulbecco minimal essential medium, integrated with 15% KSR (Invitrogen), 2 mM glutamine, 100 U/ml penicillin/streptomycin, and 0.1 mM β-mercaptoethanol.
From 6 days of differentiation, the expression profiles of markers of undifferentiated cells and specific markers for the three germ layers have been analyzed by RT-PCR. The expression of Oct4 and Nanog, markers of undifferentiated ES cells, is detectable in both cell lines (FIG. 1A). […]

wt ES cells [2] = experiment: Differentiation of wt ES cells in the presence of D-(−)-ribose; conditions: 10 neural differentiation days
Procedure: as §1, with “[…]Δ)” for “(G6pdΔ)”, “β-mercaptoethanol. Heterozygous knock-out ES Pdg+/- cells for the phosphogluconate dehydrogenase (PDG) enzyme, the second enzyme present in the PPP, were exposed to the above-described differentiation procedure. These cells have reduced Pdg mRNA levels, and are not sensitive to oxidative stress. […] Furthermore, […]Δ cells were exposed to the same differentiation procedure, but in the presence of D-(-)-ribose. […]” for “β-mercaptoethanol.”

G6pdΔ cells [3] = experiment: Quantitative (real-time) PCR of Sox17 mRNA in G6pdΔ cells differentiated in the presence of D-(−)-ribose; conditions: normalized to GAPDH, 10 neural differentiation days in the presence of D-(−)-ribose
Procedure: as §1, with “FIG. 2: (A) RT-PCR analysis of the expression of different specific differentiation markers in wt and Pgd+/- cells on neural differentiation days 8 and 10. (B) QRT-PCR analysis of Sox17 expression in wt ES e […]Δ cells after 10 neural differentiation days in the presence of D-(-)-ribose. Wt” for “Wt”, “[…]Δ)” for “(G6pdΔ)”, “β-mercaptoethanol. Heterozygous knock-out ES Pdg+/- cells for the phosphogluconate dehydrogenase (PDG) enzyme, the second enzyme present in the PPP, were exposed to the above-described differentiation procedure. […]” for “β-mercaptoethanol.”

G6pdΔ cells [4] = experiment: Differentiation of G6pdΔ cells towards pancreatic precursors, Real Time PCR of Pdx1 expression; conditions: G6pdΔ cells on differentiation day 8, 4 day exposure
Procedure: as §1
The real-time PCR analysis was carried out with a Biorad CFX 96 Real time System apparatus using a SYBR Green PCR Master Mix (Biorad) and the protocol recommended by the manufacturer. The relative expression of the various genes was normalized by using GAPDH as the gene standard. The used oligos were:
G6pdΔ cells on differentiation day 8, that are already expressing Sox17, are exposed to Indolactam V, an inducer of the differentiation of endoderm precursors towards pancreatic precursors. […]

## NC(=O)c1ccc(N)nc1 [AN, 6-aminonicotinamide]
Wt ES cells [1]
  induction of differentiation of wt ES cells towards Sox 17+ cells: capable of inducing the differentiation of wt ES cells towards Sox 17+ cells

## C[C@]12CC[C@H](O)CC1=CC[C@@H]1[C@@H]2CC[C@]2(C)C(=O)CC[C@@H]12 [DHEA, dehydroepiandrosterone]
Wt ES cells [1]
  induction of differentiation of wt ES cells towards Sox 17+ cells: capable of inducing the differentiation of wt ES cells towards Sox 17+ cells

## O=C[C@H](O)[C@H](O)[C@H](O)CO [D-(−)-ribose]
Wt ES cells [2]
  variation in the differentiation of wt ES cells: does not lead to any variation in the differentiation of wt ES cells
G6pdΔ cells [3]
  Sox17 mRNA levels in G6pdΔ cells: a reduction in Sox17 mRNA levels

## CC(C)[C@H]1C(=O)N[C@H](CO)Cc2c[nH]c3cccc(c23)N1C [Indolactam V]
G6pdΔ cells [4]
  increase in the Pdx1 expression levels compared to control cells: about 2.5 times
